# Target: T1, LGR5 (Homo sapiens, UniProt O75473)
# T1 construct: purchased Promega (in-house HiBiT-GPCR construct library, NanoBRET)
# T1 sequence (O75473 22-907): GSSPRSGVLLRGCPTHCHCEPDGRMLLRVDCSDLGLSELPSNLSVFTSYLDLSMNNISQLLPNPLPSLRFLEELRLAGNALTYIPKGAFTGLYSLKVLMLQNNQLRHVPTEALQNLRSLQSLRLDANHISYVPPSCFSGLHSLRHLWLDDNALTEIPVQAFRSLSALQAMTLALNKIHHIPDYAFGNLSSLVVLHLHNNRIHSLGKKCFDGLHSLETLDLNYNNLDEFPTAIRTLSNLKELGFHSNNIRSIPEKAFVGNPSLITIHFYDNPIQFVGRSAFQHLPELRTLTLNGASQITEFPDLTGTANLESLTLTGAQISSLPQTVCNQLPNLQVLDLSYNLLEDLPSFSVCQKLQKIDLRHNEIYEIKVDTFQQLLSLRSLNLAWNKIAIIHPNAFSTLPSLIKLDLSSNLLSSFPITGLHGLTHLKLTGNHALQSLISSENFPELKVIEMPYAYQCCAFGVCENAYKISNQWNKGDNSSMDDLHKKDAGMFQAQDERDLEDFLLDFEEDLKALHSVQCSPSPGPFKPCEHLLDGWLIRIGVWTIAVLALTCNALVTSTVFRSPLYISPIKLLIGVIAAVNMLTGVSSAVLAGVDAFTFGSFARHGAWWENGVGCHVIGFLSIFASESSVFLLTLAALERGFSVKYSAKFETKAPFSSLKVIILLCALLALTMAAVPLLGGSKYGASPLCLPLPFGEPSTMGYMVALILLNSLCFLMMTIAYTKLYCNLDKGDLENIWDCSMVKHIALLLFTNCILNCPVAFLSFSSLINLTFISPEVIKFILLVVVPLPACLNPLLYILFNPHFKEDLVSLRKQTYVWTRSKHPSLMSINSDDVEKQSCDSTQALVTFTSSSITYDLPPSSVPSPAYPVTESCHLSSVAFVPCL
# Experiment: NanoBRET screen HiBiT-LGR5 in HEK293
# Type: binding
# Method: Each tracer candidate was screened across the entire library of HiBiT-GPCR constructs using NanoBRET as the detection modality. As depicted in Figure 4A, the specificity of interactions was evaluated through decrease in BRET due to competitive displacement of a bound tracer by excess parental compound. Each tracer was analyzed for binding to each HiBiT-GPCR fusion in the absence and in the presence of competing parental compound. Briefly, HEK293 cells were transfected with HiBiT-GPCR constructs diluted into promoterless DNA to reduce expression and maximize translocation to the cell surface. Each tracer candidate was then screened at concentrations of 1 μM and 0.1 μM across cells expressing these fusions. Cells were treated for 1.5 h with tracer either alone or in the presence of 20 μM competing parental compound (i.e., control). BRET was measured upon addition of purified LgBiT and subsequent complementation with HiBiT genetically fused to a GPCR. The specificity of interactions was assessed through a decrease in BRET signal due to competitive displacement of the bound tracer. To further gauge the robustness of these interactions, the fold response over the control (i.e., BRETtracer/BRETcontrol) was calculated. We chose a 1.5-fold response, which translates to ≥7-fold signal over noise as the minimal threshold required to score an interaction as positive.
# HiBiT-GPCR DNA constructs were diluted in 10 mM Tris pH 8 to a final concentration of 0.01 μg/μL, arrayed in 96-well plates and stored at −20 °C. For transfection, HEK293 cells were suspended in Opti-MEM (without phenol red) supplemented with 2% fetal bovine serum (Seradigm) and 100 units/mL penicillin–streptomycin (Gibco) at a final concentration of 220,000 cells/mL and dispensed into white 96-well plates at 90 μL/well. Subsequent transfections and screens were carried using an Agilent Bravo Automated Liquid Handling Platform. First, the 96-well HiBiT DNA arrays were diluted 25-fold in Opti-MEM (without serum or phenol red) to a final concentration of 0.0004 μg/μL and 20 μL of the diluted DNAs were transferred into new 96-well plates. Next, promoterless carrier DNA (1 μg/μL) was diluted 25-fold (0.04 μg/μL) and then dispensed into the diluted arrays at 20 μL/well. Following brief mixing, Viafect transfection reagent (Promega) diluted 16-fold into Opti-MEM was dispensed into the plates at 40 μL/well. After mixing by pipetting, plates were incubated for 10 min on the pipetting station deck. The DNA-transfection reagent complexes were then added to plates containing cells. To facilitate the screen, 10 μL of DNA-transfection reagent complexes were added in duplicates to the top 4 and bottom 4 rows, resulting in two identical 48-well arrays per plate. Plates with transfected cells were incubated for 18–20 h at 37 °C/5% CO2. A screen of each tracer across the entire library using two different concentrations requires duplicate plates of transfected cells. Depending on the number of tracers being screened, transfections can be scaled up using the same ratios. The next day, for each tracer, four 20× screening solutions in tracer dilution buffer (Promega) were prepared: two duplicates at final concentration of 20 μM and two duplicates at a final concentration of 2 μM. […] The four resulting solutions were diluted 4-fold in Opti-MEM without serum or phenol red to generate 5× solutions (5 µM and 0.5 µM tracer +/− 100 μM competing compound). To screen the library, a BioTek MultiFlo FX liquid dispenser was used to dispense 22.5 µL of tracer solution to the top 4 rows and 22.5 µL tracer + competing compound solution to the 4 bottom rows. Plates were briefly mixed on an orbital shaker and incubated for 1.5 h at room temperature. […] Plates were briefly mixed on an orbital shaker and incubated for 15 min to allow complementation.
SMILES,"NanoBRET Fold Response (LGR5, tracer 0.1μM)","NanoBRET Fold Response (LGR5, tracer 1μM)",also measured
O=C(CCc1ccc2n1[B-](F)(F)[N+]1=C(c3ccc[nH]3)C=CC1=C2)NCc1ccc(C(=O)NCCOCCC(=O)N[C@@H]2CC[C@@]3(O)[C@H]4Cc5ccc(O)c6c5[C@@]3(CCN4CC3CC3)[C@H]2O6)cc1 [Naltrexone-3-NB590],0.41,1.33,–
CCCn1c(=O)c2[nH]c(-c3ccc(OCC(=O)NCCNC(=O)CCOCCNC(=O)c4ccc(CNC(=O)CCc5ccc6n5[B-](F)(F)[N+]5=C(c7ccc[nH]7)C=CC5=C6)cc4)cc3)nc2n(CCC)c1=O [XAC-3-NB590],0.95,0.89,–
CC(C)N(CC[C@H](c1ccccc1)c1cc(CCNC(=O)c2ccc(CNC(=O)CCc3ccc4n3[B-](F)(F)[N+]3=C(c5ccc[nH]5)C=CC3=C4)cc2)ccc1O)C(C)C [Tolterodine-BZ-NB590],0.91,0.89,–
COc1ccc2[nH]c(-c3ccc(CNC(=O)CCOCCOCCOCCOCCNC(=O)CCc4ccc5n4[B-](F)(F)[N+]4=C(c6ccc[nH]6)C=CC4=C5)cc3)c(CCNC(C)=O)c2n1 [AzomelatoninICO9-2-NB590],–,–,NanoBRET Fold Response (0.1μM tracer): 1.35; NanoBRET Fold Response (1μM tracer): 0.94
CN1CCN(C2=Nc3cc(Cl)ccc3N(CC(=O)NCCOCCOCCOCCOCCNC(=O)CCc3ccc4n3[B-](F)(F)[N+]3=C(c5ccc[nH]5)C=CC3=C4)c3ccccc32)CC1 [Clozapine-c-2-NB590],–,–,"NanoBRET Fold Response (LGR5, 1μM tracer): 0.83"
COc1ccccc1N1CCN(CCCCN2C(=O)c3ccc(CNC(=O)CCOCCNC(=O)c4ccc(CNC(=O)CCc5ccc6n5[B-](F)(F)[N+]5=C(c7ccc[nH]7)C=CC5=C6)cc4)cc3C2=O)CC1 [NAN-190-3-NB590],1.30,0.72,–
Cc1nc2n(c(=O)c1CCN1CCC(c3noc4cc(F)ccc34)CC1)CCCC2OC(=O)NCCOCCOCCOCCOCCNC(=O)CCc1ccc2n1[B-](F)(F)[N+]1=C(c3ccc[nH]3)C=CC1=C2 (stereo not drawn) [Risperidone-2-NB590],1.07,1.18,–
O=C(CCOCCOCCOCCOCCNC(=O)CCc1ccc2n1[B-](F)(F)[N+]1=C(c3ccc[nH]3)C=CC1=C2)NCCCN1CCN(C2=Nc3ccccc3Oc3ccc(Cl)cc32)CC1 [Loxapine-a-2-NB590],0.94,0.97,–
COc1ccccc1N1CCN(CCCCN2C(=O)c3ccc(CNC(=O)CCOCCOCCOCCOCCNC(=O)CCc4ccc5n4[B-](F)(F)[N+]4=C(c6ccc[nH]6)C=CC4=C5)cc3C2=O)CC1 [NAN-190-2-NB590],1.22,0.83,–
CC(C)N(CC[C@H](c1ccccc1)c1cc(CCNC(=O)CCOCCOCCOCCOCCNC(=O)CCc2ccc3n2[B-](F)(F)[N+]2=C(c4ccc[nH]4)C=CC2=C3)ccc1O)C(C)C [Tolterodine-2-NB590],0.91,0.71,–
N#CN=C(NCCCOc1cccc(CN2CCCCC2)c1)NCCNC(=O)CCOCCOCCOCCOCCNC(=O)CCc1ccc2n1[B-](F)(F)[N+]1=C(c3ccc[nH]3)C=CC1=C2 [Aminopotentidine-2-NB590],0.79,1.15,–
CCOC(=O)c1cc(C#N)c(N2CCC(C(=O)NS(=O)(=O)Cc3ccccc3/C=C/C(=O)NCCNC(=O)CCc3ccc4n3[B-](F)(F)[N+]3=C(c5ccc[nH]5)C=CC3=C4)CC2)nc1C [AZD1283-1-NB590],–,–,"NanoBRET Fold Response (LGR5, 0.1μM): 0.86; NanoBRET Fold Response (LGR5, 1μM): 0.91"
CN(C)CCC=C1c2ccccc2CCc2ccc(C(=O)NCCNC(=O)CCOCCOCCOCCOCCNC(=O)CCc3ccc4n3[B-](F)(F)[N+]3=C(c5ccc[nH]5)C=CC3=C4)cc21 [Amitriptyline-b-2-NB590],–,–,"NanoBRET Fold Response (tracer at 0.1μM, listed as amitriptyline-b-2-NB590): 1.19; NanoBRET Fold Response (tracer at 1μM, listed as amitriptyline-b-2-NB590): 1.19"
CN(C)CCC=C1c2ccccc2CCc2ccc(C(=O)NCCNC(=O)CCOCCOCCOCCOCCNC(=O)CCc3ccc4n3[B-](F)(F)[N+]3=C(c5ccc[nH]5)C=CC3=C4)cc21 [Amitriptyline-a-2-NB590],–,–,NanoBRET Fold Response (tracer at 0.1μM): 0.91; NanoBRET Fold Response (tracer at 1μM): 1.02
O=C(CCc1ccc2n1[B-](F)(F)[N+]1=C(c3ccc[nH]3)C=CC1=C2)NCCOCCOCCNC(=O)OCCOCCN1CCN(C2=Nc3ccccc3Sc3ccccc32)CC1 [Quetiapine-a-2-NB590],1.02,0.78,–
Cc1cc2c(s1)Nc1ccccc1N=C2N1CCN(CCCNC(=O)CCOCCOCCOCCOCCNC(=O)CCc2ccc3n2[B-](F)(F)[N+]2=C(c4ccc[nH]4)C=CC2=C3)CC1 [Olanzapine-a-2-NB590],0.91,0.81,–
CN1CCN(C2=Nc3cc(Cl)ccc3Nc3ccc(CNC(=O)CCOCCOCCOCCOCCNC(=O)CCc4ccc5n4[B-](F)(F)[N+]4=C(c6ccc[nH]6)C=CC4=C5)cc32)CC1 [Clozapine-b-2-NB590],–,–,"NanoBRET Fold Response (LGR5, 0.1μM tracer): 0.95"
COc1ccc2c(n1)c(CCNC(C)=O)cn2CCNC(=O)CCc1ccc2n1[B-](F)(F)[N+]1=C(c3ccc[nH]3)C=CC1=C2 [Azamelatonin-1-NB590],–,–,NanoBRET Fold Response (0.1μM tracer): 0.96; NanoBRET Fold Response (1μM tracer): 0.96
CN(CCC=C1c2ccccc2CCc2ccccc21)C(=O)CCOCCOCCOCCOCCNC(=O)CCc1ccc2n1[B-](F)(F)[N+]1=C(c3ccc[nH]3)C=CC1=C2 [Amitriptyline-e-2-NB590],–,–,NanoBRET Fold Response (tracer at 1μM): 0.85
O=C(CCc1ccc2n1[B-](F)(F)[N+]1=C(c3ccc[nH]3)C=CC1=C2)NCc1ccc(C(=O)NCCOCCOCCNCC(O)COc2cccc3ccccc23)cc1 (stereo not drawn) [Propranolol-3-NB590],–,–,"NanoBRET Fold Response (LGR5, 0.1μM): 1.10; NanoBRET Fold Response (LGR5, 1μM): 0.93"
O=C(CCOCCOCCOCCOCCNC(=O)CCc1ccc2n1[B-](F)(F)[N+]1=C(c3ccc[nH]3)C=CC1=C2)NCCCN1CCN(C2=Nc3cc(Cl)ccc3Nc3ccccc32)CC1 [Clozapine-a-2-NB590],–,–,"NanoBRET Fold Response (LGR5, 0.1μM tracer): 0.94; NanoBRET Fold Response (LGR5, 1μM tracer): 0.79"

# Reference: publication PMC8151276, “An Integrated Approach toward NanoBRET Tracers for Analysis of GPCR Ligand Engagement” (Molecules, 2021)
